≈ marks a conversion by molar mass, not a printed value.
Key:
Experiment in all cases: In vitro antifungal activity, microbroth dilution MIC
Type in all cases: cell-based
[1] = system: Aspergillus furnigatus B. 19119; conditions: 4 to 48 hours; for Minimal inhibitory concentration (MIC): A furnigatus B. 19119, RPMI-1640, 35° C.
Method in brief: (§1)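 Broth microdilution adapted from NCCLS M27, in RPMI-1640 with 0.165 M MOPS, pH 7.0. Yeast or mould inoculum at 2×10^3 CFU/ml was mixed 1:1 with DMSO-derived compound solutions (200 to 0.10 μg/ml before mixing) and incubated at 35 °C for 4 to 48 h. MIC was the concentration showing no growth.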

[2] = system: Aspergillus niger A. 16404; conditions: 4 to 48 hours; for Minimal inhibitory concentration (MIC): A. niger A. 16404, RPMI-1640, 35° C.
Method in brief: as §1

[3] = system: Candida albicans A. 10231; conditions: 4 to 48 hours; for Minimal inhibitory concentration (MIC): C. albicans A. 10231, RPMI-1640, 35° C.
Method in brief: as §1

[4] = system: Candida albicans C1-2; conditions: 4 to 48 hours; for Minimal inhibitory concentration (MIC): C. albicans C1-2, RPMI-1640, 35° C.
Method in brief: as §1

[5] = system: Candida albicans IFO. 1385; conditions: 4 to 48 hours; for Minimal inhibitory concentration (MIC): C. albicans IFO. 1385, RPMI-1640, 35° C.
Method in brief: as §1

[6] = system: Candida krusei K. 11655; conditions: 4 to 48 hours; for Minimal inhibitory concentration (MIC): C. krusei K. 11655, RPMI-1640, 35° C.
Method in brief: as §1

[7] = system: Candida parapsitosis A. 7330; conditions: 4 to 48 hours; for Minimal inhibitory concentration (MIC): C. parapsitosis A. 7330, RPMI-1640, 35° C.
Method in brief: as §1

[8] = system: Candida pseudotropicalis K. 11658; conditions: 4 to 48 hours; for Minimal inhibitory concentration (MIC): C. pseudotropicalis K. 11658, RPMI-1640, 35° C.
Method in brief: as §1

[9] = system: Candida tropicalis A. 13803; conditions: 4 to 48 hours; for Minimal inhibitory concentration (MIC): C. tropicalis A. 13803, RPMI-1640, 35° C.
Method in brief: as §1

[10] = system: Cryptococcus neoformans A. 34144; conditions: 4 to 48 hours; for Minimal inhibitory concentration (MIC): Cry. neoformans A. 34144, RPMI-1640, 35° C.
Method in brief: as §1

[11] = system: Cryptococcus neoformans B. 42419; conditions: 4 to 48 hours; for Minimal inhibitory concentration (MIC): Cry. neoformans B. 42419, RPMI-1640, 35° C.
Method in brief: as §1

[12] = system: Cryptococcus neoformans IFM. 40092; conditions: 4 to 48 hours; for Minimal inhibitory concentration (MIC): Cry. neoformans IFM. 40092, RPMI-1640, 35° C.
Method in brief: as §1

[13] = system: Torulopsis glabrata B. 16205; conditions: 4 to 48 hours; for Minimal inhibitory concentration (MIC): T. glabrata B. 16205, RPMI-1640, 35° C.
Method in brief: as §1

[14] = system: Trichophyton mentagrophytes A. 9129; conditions: 4 to 48 hours; for Minimal inhibitory concentration (MIC): T. mentagrophytes A. 9129, RPMI-1640, 35° C.
Method in brief: as §1

[15] = system: Trichophyton mentagrophytes B. 32663; conditions: 4 to 48 hours; for Minimal inhibitory concentration (MIC): T. mentagrophytes B. 32663, RPMI-1640, 35° C.
Method in brief: as §1

[16] = RPMI-1640, 35° C., no growth observed

Row | Minimal inhibitory concentration (MIC) [1] | Minimal inhibitory concentration (MIC) [2] | Minimal inhibitory concentration (MIC) [3] | Minimal inhibitory concentration (MIC) [4] | Minimal inhibitory concentration (MIC) [5] | Minimal inhibitory concentration (MIC) [6] | Minimal inhibitory concentration (MIC) [7] | Minimal inhibitory concentration (MIC) [8] | Minimal inhibitory concentration (MIC) [9] | Minimal inhibitory concentration (MIC) [10] | Minimal inhibitory concentration (MIC) [11] | Minimal inhibitory concentration (MIC) [12] | Minimal inhibitory concentration (MIC) [13] | Minimal inhibitory concentration (MIC) [14] | Minimal inhibitory concentration (MIC) [15] | Compound | other results
1 | 50.0 µg/mL (≈ 91.7 µM) | 100 µg/mL (≈ 183 µM) | 6.25 µg/mL (≈ 11.5 µM) | 6.25 µg/mL (≈ 11.5 µM) | 0.78 µg/mL (≈ 1.43 µM) | 100 µg/mL (≈ 183 µM) | >100 µg/mL | 100 µg/mL (≈ 183 µM) | 25.0 µg/mL (≈ 45.8 µM) | 1.56 µg/mL (≈ 2.86 µM) | 1.56 µg/mL (≈ 2.86 µM) | 0.39 µg/mL (≈ 0.715 µM) | 12.5 µg/mL (≈ 22.9 µM) | 12.5 µg/mL (≈ 22.9 µM) | 6.25 µg/mL (≈ 11.5 µM) | Cc1ccc(C(=C(F)OCC2COC(Cn3ccnc3)(c3ccc(Cl)cc3Cl)O2)C(F)(F)F)cc1C (stereo not drawn) [Ex. 23] | –
2 | 3.13 µg/mL | 12.5 µg/mL | 12.5 µg/mL | 12.5 µg/mL | 0.39 µg/mL | 50.0 µg/mL | >100 µg/mL | 25.0 µg/mL | 25.0 µg/mL | 1.56 µg/mL | 1.56 µg/mL | 0.20 µg/mL | 6.25 µg/mL | 1.56 µg/mL | 0.78 µg/mL | FC(=Cc1cccc2ccccc12)OCC1COC(Cn2ccnc2)(c2ccc(F)cc2F)O1 (mixture of isomers) [Ex. 51] | –
3 | 1.56 µg/mL (≈ 3.22 µM) | 3.13 µg/mL (≈ 6.47 µM) | 6.25 µg/mL (≈ 12.9 µM) | 3.13 µg/mL (≈ 6.47 µM) | 0.39 µg/mL (≈ 0.806 µM) | 25.0 µg/mL (≈ 51.7 µM) | 50.0 µg/mL (≈ 103 µM) | 1.56 µg/mL (≈ 3.22 µM) | 50.0 µg/mL (≈ 103 µM) | 0.39 µg/mL (≈ 0.806 µM) | 0.39 µg/mL (≈ 0.806 µM) | ≦0.10 μg/ml | 6.25 µg/mL (≈ 12.9 µM) | 0.78 µg/mL (≈ 1.61 µM) | ≦0.10 μg/ml | FC(=Cc1cccc(Cl)c1)OCC1COC(Cn2ccnc2)(c2ccc(Cl)cc2Cl)O1 (stereo not drawn) [Ex. 13] | –
4 | – | – | – | – | – | – | – | – | – | – | – | – | – | – | – | FC(Oc1ccc(OCC2COC(Cn3ccnc3)(c3ccc(Cl)cc3Cl)O2)cc1)=C(c1ccccc1)C(F)(F)F (mixture of isomers) [Ex. 93] | Minimal inhibitory concentration(MIC), A furnigatus B. 19119 [1, 16]: >100 µg/mL; Minimal inhibitory concentration(MIC), A. niger A. 16404 [2, 16]: >100 µg/mL; Minimal inhibitory concentration(MIC), C. albicans A. 10231 [3, 16]: 100 µg/mL; Minimal inhibitory concentration(MIC), C. albicans C1-2 [4, 16]: >100 µg/mL; Minimal inhibitory concentration(MIC), C. albicans IFO. 1385 [5, 16]: 6.25 µg/mL; Minimal inhibitory concentration(MIC), C. krusei K. 11655 [6, 16]: >100 µg/mL; Minimal inhibitory concentration(MIC), C. parapsitosis A. 7330 [7, 16]: >100 µg/mL; Minimal inhibitory concentration(MIC), C. pseudotropicalis K. 11658 [8, 16]: >100 µg/mL; Minimal inhibitory concentration(MIC), C. tropicalis A. 13803 [9, 16]: >100 µg/mL; Minimal inhibitory concentration(MIC), Cry. neoformans A. 34144 [10, 16]: 12.5 µg/mL; Minimal inhibitory concentration(MIC), Cry. neoformans B. 42419 [11, 16]: >100 µg/mL; Minimal inhibitory concentration(MIC), Cry. neoformans IFM. 40092 [12, 16]: 1.56 µg/mL; Minimal inhibitory concentration(MIC), T. glabrata B. 16205 [13, 16]: 100 µg/mL; Minimal inhibitory concentration(MIC), T. mentagrophytes A. 9129 [14, 16]: 25.0 µg/mL; Minimal inhibitory concentration(MIC), T. mentagrophytes B. 32663 [15, 16]: 25.0 µg/mL

Reference: US6376497B1, “Antifungal azole derivatives having a fluorinated vinyl group and process for preparing same” (Korea Research Institute of Chemical Technology, priority 1999, dated 2002)
